Assays:
[1] = published rat feeding study, independent from intake; cited from earlier work
[2] = Tryptophan release / dissolution in simulated gastric and intestinal fluid; type: physicochemical; conditions: 30 mg powder in 22 mL FaSSGF, 37° C.
Experimental: A sample of 200 mg of tryptophan-containing granules was suspended in 22 mL fasted-state simulated gastric fluid (FaSSGF) at 37° C. and agitated (shaker ST5 from CAT, Germany). FaSSGF was prepared by dissolving 1 g of NaCl (Sigma-Aldrich) in 450 mL of water, adding 30 mg of SIF powder (biorelvant.com), adjusting the pH to 2.0 with 0.1 N HCl (Sigma-Aldrich) and adding water to a final volume of 500 mL.
A sample of 200 mg of tryptophan-containing granules was suspended in 22 mL fasted-state simulated intestinal fluid (FaSSIF) at 37° C. and agitated (shaker ST5 from CAT, Germany).
30 mg of tryptophan powder were suspended in 22 mL FaSSGF at 37° C. and agitated (shaker ST5 from CAT, Germany). Aliquots were removed at time intervals of 5 min, and tryptophan concentration was quantified using absorption measurement at a wavelength of 280 nm in a NanoDrop® 2000 device (Thermo Scientific, USA).

CCCCCCCCCCCCCCCCCC(=O)OCC(COC(=O)CCCCCCCCCCCCCCCCC)OC(=O)CCCCCCCCCCCCCCCCC [tristearin]
true digestibility of stearic acid from tristearin [1]: 0.15 g/g

N[C@@H](Cc1c[nH]c2ccccc12)C(=O)O [tryptophan powder, L-Tryptophan]
time after which quantitatively dissolved [2]: 10 min
